Consider one molecule from patent US6537545B1, “Use of corneal hardening agents in enzymeorthokeratology” (ISTA Pharmaceuticals, Inc., priority 1998, dated 2003).

The subject of series [1] is Dutch Belted rabbit corneas. The experiment in a line: Safety of glyceraldehyde in rabbits, slit lamp examination scores (Example 1). The following applies: 500 IU hyaluronidase day 1, 3% glyceraldehyde 20 μL intrastromal day 8, then 1 drop three times a day, 50 days, control BSS. In kind it is in vivo. The text has this:
In this Example, the safety of treating Dutch Belted rabbit corneas with glyceraldehyde following administration of the corneal softening enzyme hyaluronidase was investigated. This study involved the use of five (5) pigmented Dutch Belted rabbits, two (2) in the control group and three (3) in the glyceraldehyde treated group.
All rabbits received a thorough slit lamp examination on the first day of the study to establish the baseline using the following technique. A Nikon FS-2 Slit Lamp was used for the examinations of the test animals. For each animal examined, the eyes were dilated by instilling one drop of 1.0% tropicamide (Bausch and Lomb, Tampa, Fla.) and 2.5% phenylephrine (Bausch and Lomb, Tampa, Fla.). The animal was then positioned in front of a slit lamp. The corneas of each animal were examined for edema and the surface area involved with edema was estimated. The anterior chambers of the animals were closely examined for chamber depth, aqueous cell and flare, and fibrin. The iris of each animal was examined for atrophy, symmetry, or synechiae. The lens was examined and cellular debris, capsule, or lens protein abnormalities were noted if present. The vitreous humor of each animal were then examined for the presence of cells or other abnormnalities. […]

The subject of series [2] is eyes of non-sighted human patients. The experiment in a line: Safety of non-enzymatic corneaplasty and topical 3% glyceraldehyde in five non-sighted human patients (Example 5). The following applies: lenses 7 days, then 3% glyceraldehyde plus lenses 28 days, only minor incidents of SPK. The class given is in vivo. As for the experimental part: In this study five non-sighted patients with good corneas were treated with contact lenses and a 3% glyceraldehyde solution to determine the safety of this procedure. Here, the patients were fitted with and wore contact lenses for seven (7) days. Following this period a 3% glyceraldehyde solution (described above) was applied to the eyes and the contact lens wear continued for twenty-eight (28) days. After this period both the contact lens wear and the glyceraldehyde treatment ceased.
The patients were individually examined for the effects of the treatments following removal of the lenses and cessation of the glyceraldehyde treatment. The first examination was on the last day of treatment, and five (5) subsequent examinations were administered over a one month period.

The subject of series [3] is cornea. The experiment in a line: Corneal elasticity, recovery from indentation by spherical glass indentor (Example 7). The class given is in vivo, human. The method, then: A precision spherical glass indentor was used to contact the corneal surface of subjects treated with the methods of the present invention to measure changes in corneal elasticity. The method used involved the application of the indentor, in the form of a small spherical ball to gently deflect into a test cornea to establish an initial deflection value. Measurements were taken by using an interferometer to view the deflection. Following this application, the relaxation period was measured by observing the change in the impression made by the indentor.
The indentation range of movement was characterized using a precision linear variable differential transducer (LVDT) device that measured the linear travel of a stage carrying the indentor probe. The average travel distance of the probe was established at approximately 700 micrometers. The contact depth of the indentor probe was measured by evaluating the corneal surface immediately after indentation and measuring the local height values caused by the probe contact. This value was measured to range from 266 to 300 micrometers.
A digital timer was used to mark the beginning and ending times during observation. Changes in the impression were readily observed during this period. The final end point was considered to be when the local fringe disturbance was recovered blending with the undisturbed neighboring fringes. […] However, given the time scales involved, the value of this error is considered to be small.
The method of inducing corneal inflection involved first contacting the test corneal with the indentor. After the initial contact with the cornea was established, the probe was moved forward into the cornea to a predetermined distance. Seven hundred microns was used to achieve adequate deflection. Topography was taken immediately after the deflection to record the impression made in the cornea. Observations of the cornea were then made at one (1) minute intervals to note the change in the impression made. […] Another topography was done after five (5) minutes to record the final condition of the impression. […]

With `O=CC(O)CO` (stereo not shown) [glyceraldehyde], in series [1], the “clinical observations (slit lamp scores), statistical analysis vs control group” value is “no differences between the groups”. Moreover, the “corneal findings in all patients” value in series [2] is on record as “Normal corneas”. Moreover, the “time for cornea to recover from indentation” value in series [3] (after about two weeks of glyceraldehyde solution drops) is 20 to 30 s. Also, the “change in corneal elasticity after treatment” value in series [3] (glyceraldehyde solution drops, from more rapid indentation recovery) is reported as “more elastic”.
